Assay results reported in paper PMC6897945, “CytA, a reductase in the cytorhodin biosynthesis pathway, inactivates anthracycline drugs in Streptomyces” (Communications Biology, 2019).
pIC50: −log10 of the molar value. In brackets after ≈: the same amount, converted by molar mass. Like-named read-outs stand apart in the source and are kept apart here.

Legend:
B. subtilis BS01 = assay: Antibacterial activity, broth dilution MIC; type: cell-based; settings: Bacillus subtilis, BS01, read-out: MIC values, BS
Experimental: (§1) The antibacterial activities of compounds 1–13 were assessed using twofold serial dilutions of antibacterial agents in MH broth, according to previously reported standard methods provided by Clinical and Laboratory Standards Institute (CLSI)[30]. These compounds were tested for their antibacterial activities against Bacillus subtilis BS01, Staphyloccocus aureus ATCC 29213, Staphyloccocus aureus 745524, Bacillus thuringiensis BT01, and Enterococcus faecalis ATCC 29212 using a broth dilution method.

B. thuringiensis BT01 = assay: Antibacterial activity, broth dilution MIC; type: cell-based; settings: Bacillus thuringiensis, BT01, read-out: MIC values, BT
Experimental: as §1

E. faecalis ATCC 29212 = assay: Antibacterial activity, broth dilution MIC; type: cell-based; settings: Enterococcus faecalis, ATCC29212, read-out: MIC values, EF
Experimental: as §1

[1] = system: Staphylococcus aureus 745524; assay: Antibacterial activity, broth dilution MIC; type: cell-based; settings: Staphylococcus aureus, 745524, read-out: MIC values, SA2
Experimental: as §1

[2] = system: Staphylococcus aureus ATCC 29213; assay: Antibacterial activity, broth dilution MIC; type: cell-based; settings: Staphylococcus aureus, ATCC29213, read-out: MIC values, SA1
Experimental: as §1

[3] = Cytotoxic activity, MTT method; type: cell-based; settings: human
Source text: (§2) All data were obtained in triplicate and are presented as means.

[4] = system: A549 human lung cancer cell line; assay: Cytotoxic activity, MTT method; type: cell-based; settings: A549, read-out: Cytotoxic activities IC50, A549
Source text: as §2

[5] = system: HeLa human cervical carcinoma cell line; assay: Cytotoxic activity, MTT method; type: cell-based; settings: read-out: Cytotoxic activities IC50, HeLa
Source text: as §2

[6] = system: HepG2 human hepatocellular carcinoma cell line; assay: Cytotoxic activity, MTT method; type: cell-based; settings: HepG2, read-out: Cytotoxic activities IC50, HepG2
Source text: as §2

[7] = system: MCF-7 human breast adenocarcinoma cell line; assay: Cytotoxic activity, MTT method; type: cell-based; settings: MCF7, read-out: Cytotoxic activities IC50, MCF-7
Source text: as §2

[8] = system: MDA-MB-231 human triple negative breast adenocarcinoma cell line; assay: Cytotoxic activity, MTT method; type: cell-based; settings: MDA-MB-231, read-out: Cytotoxic activities IC50, MDA-MB-231
Source text: as §2

[9] = system: MDA-MB-468 human triple negative breast adenocarcinoma cell line; assay: Cytotoxic activity, MTT method; type: cell-based; settings: MDA-MB-468, read-out: Cytotoxic activities IC50, MDA-MB-468
Source text: as §2

[10] = system: RKO human colorectal carcinoma cell line; assay: Cytotoxic activity, MTT method; type: cell-based; settings: read-out: Cytotoxic activities IC50, RKO
Source text: as §2

CytA = assay: In vitro CytA enzymatic activity assay (HPLC analysis); type: biochemical, Streptomyces sp. SCSIO 1666; settings: absence of O2 (anaerobic); 25 μM substrate, 0.5 μM CytA, 20 μM NADH, 37 °C
Source text: To explore the biochemical activity of CytA in vitro, the cytA gene was cloned into the NdeI and EcoRI sites of the pET28a (+) vector and the resulting vector was transformed into E. coli BL21(DE3) using previously described methods. CytA was overexpressed as an N-terminally His6-tagged soluble protein and purified to homogeneity by Ni affinity chromatography (Fig. 2a). […] The activity of CytA was first investigated using substrates 6–9 and ε-rhodomycinone (10) under aerobic conditions. Reactions with CytA were conducted at 37 °C in a volume of 100 μL consisting of 50 mM Tris-Cl (pH 8.0), 25 μM substrate, 0.5 μM CytA, and 20 μM NADH. Reactions with boiled CytA served as controls; all reactions were carried out in parallel to ensure reaction consistency. Reactions were terminated by addition of twofold volume of methanol. As expected, CytA failed, under aerobic conditions to modify any of the substrates 6–10. […] On the heels of this finding we then determined the kinetic parameters of CytA using 6 and 7 as substrates.
Enzymatic reactions were carried out under anaerobic conditions in an anaerobic workstation (Don Whitley Scientific A45) containing a gas phase of N2/H2/CO2 (80:10: 10%, by vol.). ^1H, ^13C, and 2D (COSY, HMQC, HMBC and NOESY) NMR spectra were recorded at 25 °C with an Avance 700 MHz spectrometer instruments (Bruker). […]

Staphylococcus aureus = system: Staphylococcus aureus; parameters: method as in earlier work; settings: 6 vs 3, 7 vs 4; cited from earlier work
[11] = Huvec-12 normal cell line, read-out: Cytotoxic activities IC50, Huvec-12
[12] = L02 normal cell line, read-out: Cytotoxic activities IC50, L02

For `CC[C@@]1(O)C[C@H](O[C@H]2C[C@H](N(C)C)[C@H](O[C@H]3C[C@H](O)[C@H](O[C@H]4CC[C@H](O)[C@H](C)O4)[C@H](C)O3)[C@H](C)O2)c2c(O)c3c(c(O)c2[C@H]1O[C@H]1C[C@H](N(C)C)[C@H](O[C@H]2C[C@H](O)[C@H](O[C@H]4CC[C@H](O)[C@H](C)O4)[C@H](C)O2)[C@H](C)O1)C(=O)c1cccc(O)c1C3=O` [Compound 7, cosmomycin D], the MIC (B. subtilis BS01) was 0.03 µg/mL (≈ 0.0252 µM), the MIC (B. thuringiensis BT01) was 0.125 µg/mL (≈ 0.105 µM) and the MIC (E. faecalis ATCC 29212) was 0.002 µg/mL (≈ 0.00168 µM). For the same compound, the MIC [1] was 0.005 µg/mL (≈ 0.0042 µM), the MIC [2] was 0.01 µg/mL (≈ 0.00841 µM) and the pIC50 [3, 11] was 6.52. It also gave a pIC50 [3, 12] of 6.89, a pIC50 [4] of 7.72 and a pIC50 [5] of 6.96. The pIC50 [6] was 7.51, the pIC50 [7] was 6.29 and the pIC50 [8] was 6.18. For the same compound, the pIC50 [9] was 5.74, the pIC50 [10] was 7.00 and the “conversion by CytA (C-7 reduction/deglycosylation)” value (CytA) was “readily convert”. For the same compound, the “fold more active against Staphylococcus aureus than reduced congeners 3 and 4, respectively” value (Staphylococcus aureus) was greater than 100 fold.

For `CC[C@@]1(O)C[C@H](O[C@H]2C[C@H](N(C)C)[C@@H](O[C@H]3C[C@H](O)[C@@H](O[C@H]4CC[C@H](O)[C@H](C)O4)[C@H](C)O3)[C@H](C)O2)c2c(O)c3c(c(O)c2[C@H]1O[C@H]1C[C@H](N(C)C)[C@@H](O[C@H]2CC[C@H](O[C@H]4CC[C@H](O)[C@H](C)O4)[C@H](C)O2)[C@H](C)O1)C(=O)c1cccc(O)c1C3=O` [Compound 6, cosmomycin C], the MIC (B. subtilis BS01) was 0.06 µg/mL (≈ 0.0511 µM), the MIC (B. thuringiensis BT01) was 0.125 µg/mL (≈ 0.107 µM) and the MIC (E. faecalis ATCC 29212) was 0.001 µg/mL (≈ 0.000852 µM). It also gave an MIC [1] of 0.005 µg/mL (≈ 0.00426 µM), an MIC [2] of 0.03 µg/mL (≈ 0.0256 µM) and a pIC50 [3, 11] of 6.54. For the same compound, the pIC50 [3, 12] was 7.00, the pIC50 [4] was 7.46 and the pIC50 [5] was 7.77. For the same compound, the pIC50 [6] was 7.62, the pIC50 [7] was 6.57 and the pIC50 [8] was 6.19. For the same compound, the pIC50 [9] was 6.30, the pIC50 [10] was 7.77 and the “conversion by CytA (C-7 reduction/deglycosylation)” value (CytA) was “readily convert”. For the same compound, the “fold more active against Staphylococcus aureus than reduced congeners 3 and 4, respectively” value (Staphylococcus aureus) was greater than 100 fold.
